Results from patent US20120142657A1, “GABA-STEROID ANTAGONISTS AND THEIR USE FOR THE TREATMENT OF CNS DISORDERS” (UMECRINE AB, priority 2004, published 2012).

biological target: T1, rat GABA-A receptor (alpha1, beta2, gamma2L) (Rattus norvegicus, UniProt P18508+P62813+P63138, INS375LLRMFSFK); assay: Chloride flux (current) in recombinant GABA-A receptors expressed in Xenopus laevis oocytes, voltage clamp; format: cell-based; settings: chloride flux induced by GABA alone
T1 construct: expressed in transfected cells; host or cells: Xenopus laevis oocytes (mRNA injection)
Excerpt: Studies of Chloride Flux in Recombinant GABA-A Receptors (Alpha1, Beta2, Gama2L) Expressed in Xenopus laevis Oocytes Using Voltage Clamp Methods.
The GABA-A receptor used to test the steroids in the present invention was recombinantly expressed in oocytes of Xenopus laevis. The oocytes have a large capacity to express proteins for the surface membrane from mRNA injected into the oocyte. The receptor contains five proteins of three different types and the mRNA for the receptor subtypes alpha1, beta2, gamma2L were expressed in the present test situation. These subtypes of the GABA-A receptor are the most common in the central nervous system. These GABA-A receptors contain two alpha1 proteins, two beta2 and one gamma protein. After 48 hours of incubation the GABA-A receptors are mounted in the membrane and behave in vitro in a similar way as the receptor in situ. Therefore this model system is considered by persons skilled in art to be a good in vitro test system for GABA-A receptor active drugs. The flux of chloride through the chloride channel is a result of GABA activity on the GABA-A receptor and GABA-A receptor modulators like the 3alpha-hydroxy-5alpha/beta-pregnan-steroids can enhance the effectiveness of GABA. The flux of chloride through the receptor is measured as the current induced by the flux with a voltage clamp technique. Dose response curves of the agonists and antagonists can be developed and the current is dependent of the GABA-A receptor activation obtained after the interaction between different dosages of agonists and antagonists. By normalizing the data against a precise current, in the present study 2 μA, the results from different oocytes can be compared and by normalizing the current change against a specific dose, here 10 μM, the different test substances can be compared. The 3alpha-hydroxy-5alpha-pregnan-20-one induced enhancement of GABA mediated chloride flux was set to 1 and obtained by superfusing the GABA-A receptor expressing oocytes with 3 μM GABA+3 μM 3alpha-hydroxy-5alpha-pregnan-20-one in an in vitro bath. The chloride flux was measured as the current induced by the flux of chloride through the GABA-A receptors. The GABA induced chloride flux was set to 1 and obtained by superfusing the GABA-A receptor expressing oocytes in vitro with 30 μM GABA. The inhibiting effect on 3alpha-hydroxy-5alpha-pregnan-20-one induced enhancement of GABA mediated chloride flux by the tested UC-steroids is compared to the inhibiting effect of the same UC-steroids on GABA activation of the GABA-A receptor. In FIG. 1 are the UC-steroids with low GABA antagonism highlighted with an X while the UC-steroids with partial GABA antagonism are highlighted with a black dot ([…]).
On the figure the result are normalized to the control currents activated by 30 µM GABA or 3 μM GABA+3 μM 3alpha-hydroxy-5alpha-pregnan-20-one. The control current in the absence of steroid antagonists is normalized to […]. Each steroid antagonist is tested at 10 μM. […] The black dot ([…]) highlights the steroid antagonist that inhibits both direct GABA-response (30 μM) and 3alpha-hydroxy-5alpha-pregnan-20-one enhanced GABA response. The labels of the data points are marked with product numbers, whereas the numbering of different substances full name is shown in Table 2 and Table 3.
The studies on 3alpha-hydroxy-5alpha-pregnan-20-one inhibition were made in the presence of 3 μM GABA+3 μM 3alpha-hydroxy-5alpha-pregnan-20-one. […] Number of cells recorded n=3-10. […]

T1 sequence (P62813 28-455, stated change not applied): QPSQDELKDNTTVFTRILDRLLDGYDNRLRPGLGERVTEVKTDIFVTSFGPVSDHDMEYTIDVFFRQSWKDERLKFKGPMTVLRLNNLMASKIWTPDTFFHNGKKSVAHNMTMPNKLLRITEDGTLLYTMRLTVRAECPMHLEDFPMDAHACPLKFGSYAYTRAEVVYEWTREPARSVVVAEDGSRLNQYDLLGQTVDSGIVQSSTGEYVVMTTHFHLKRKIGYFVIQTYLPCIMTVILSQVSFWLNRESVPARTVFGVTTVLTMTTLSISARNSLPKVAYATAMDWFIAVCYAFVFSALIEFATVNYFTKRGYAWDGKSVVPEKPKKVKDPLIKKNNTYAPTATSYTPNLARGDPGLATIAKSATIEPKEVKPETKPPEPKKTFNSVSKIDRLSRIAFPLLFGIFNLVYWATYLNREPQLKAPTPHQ
T1 sequence (P63138 26-474, stated change not applied): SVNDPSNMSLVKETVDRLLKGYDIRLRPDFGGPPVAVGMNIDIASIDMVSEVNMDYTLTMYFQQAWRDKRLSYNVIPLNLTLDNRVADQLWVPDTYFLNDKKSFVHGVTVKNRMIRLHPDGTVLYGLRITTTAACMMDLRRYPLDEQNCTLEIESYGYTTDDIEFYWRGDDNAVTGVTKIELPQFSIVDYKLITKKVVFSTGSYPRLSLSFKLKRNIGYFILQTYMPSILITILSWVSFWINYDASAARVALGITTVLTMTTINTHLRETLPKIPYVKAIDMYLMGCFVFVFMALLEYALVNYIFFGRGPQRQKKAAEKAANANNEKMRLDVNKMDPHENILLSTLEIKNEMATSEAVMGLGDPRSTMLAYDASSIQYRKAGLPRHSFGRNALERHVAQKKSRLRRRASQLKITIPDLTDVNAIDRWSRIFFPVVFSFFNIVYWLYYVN
T1 sequence (P18508 with tags, fused parts or gaps INS375LLRMFSFK): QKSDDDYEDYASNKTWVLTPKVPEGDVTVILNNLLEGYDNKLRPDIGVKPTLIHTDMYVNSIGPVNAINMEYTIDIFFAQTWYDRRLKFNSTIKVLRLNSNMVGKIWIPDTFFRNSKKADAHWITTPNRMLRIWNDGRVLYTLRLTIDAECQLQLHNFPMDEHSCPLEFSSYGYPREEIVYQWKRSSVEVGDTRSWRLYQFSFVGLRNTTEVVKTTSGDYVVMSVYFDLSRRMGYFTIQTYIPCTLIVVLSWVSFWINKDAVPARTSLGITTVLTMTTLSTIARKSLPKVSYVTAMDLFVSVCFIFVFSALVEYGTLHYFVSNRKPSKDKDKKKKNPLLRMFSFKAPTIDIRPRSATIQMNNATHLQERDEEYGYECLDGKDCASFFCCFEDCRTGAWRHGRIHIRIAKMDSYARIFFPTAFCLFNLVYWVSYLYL

Row | Structure (SMILES) | antagonism against GABA itself (in words)
1 | CC(=O)O[C@H]1CC[C@@]2(C)[C@@H](CC[C@@H]3[C@@H]2CC[C@]2(C)[C@@H](C(C)=O)CC[C@@H]32)C1 [UC1012, 5alpha-PREGNAN-3beta-OL-20-ONE ACETATE] | partial antagonism against the GABA effect
2 | C[C@@H](O)[C@H]1CC[C@H]2[C@@H]3CC[C@@H]4C[C@@H](O)CC[C@]4(C)[C@H]3CC[C@]12C [UC1013, 5beta-PREGNAN-3beta, 20alpha-DIOL] | low antagonism against GABA it self
3 | CC(=O)[C@H]1CC[C@H]2[C@@H]3CC[C@@H]4C[C@@H](O)CC[C@]4(C)[C@H]3CC[C@]12C [UC1014, 5beta- PREGNAN-3beta-OL-20-ONE] | partial antagonism against the GABA effect
4 | C[C@]12CC[C@H](O)C[C@H]1CC[C@@H]1[C@@H]2CC[C@]2(C)[C@@H](C(=O)CO)CC[C@@H]12 [UC1015, 5beta-PREGNAN-3beta, 21-DIOL-20-ONE] | partial antagonism against the GABA effect
5 | CC(O)C1CCC2C3CCC4CC(O)CCC4(C)C3CCC12C (stereo not drawn) [UC1011, 5alpha-PREGNAN-3beta, 20beta-DIOL] | low antagonism against GABA it self
